Experimental data from patent publication US20050214894A1, “High throughput assay” (priority 2004, published 2005).

Tests used:
FIH = biological target: T1, FIH (Homo sapiens, UniProt Q9NWT6); assay: FIH activity assay: 2-OG consumption detected by OPD derivatisation and fluorescence; type: biochemical; details: for effect on 2-OG consumption by FIH: inhibitor 1 mM, in the presence of prime substrate and 2-OG, FIG. 7
T1 construct: FIH and GST-tagged HIF-1α 786-826 were prepared as described previously; made in house
Experimental: The assay of FIH activity was carried out by mixing 1 mM DTT, 0.6 mg/ml catalase, 2-OG, substrate and 50 mM Tris/HCl pH 7.5 to a final volume of 88 μl warming to 37° C. for 5 minutes in a water bath. Simultaneously, the enzyme and iron (prepared as 500 mM stock in 20 mM HCl, and diluted with water) were mixed at room temperature for 3 minutes. Reaction was initiated by addition of 12 μl of enzyme/iron mix to the substrate/cofactor mix. The reaction was stopped by addition of 200 μl 0.5M HCl; derivatisation was then achieved by the addition of 100 μl 10 mg/ml OPD in 0.5M HCl, and heating for 10 minutes at 95° C. in a heating block.

PHD2 = biological target: T2, PHD2 (Homo sapiens, UniProt Q9GZT9); assay: PHD2 activity assay: 2-OG consumption detected by OPD derivatisation and fluorescence; type: biochemical; details: inhibitor 1 mM; Tris and HEPES buffers; FIG. 9
T2 construct: a form of the enzyme that has had the first 180 amino acids (including those containing a MYND finger motif) removed; made in house; host or cells: Escherichia coli BL21(DE3)
Description: The PHD2 used was a form of the enzyme that has had the first 180 amino acids (including those containing a MYND finger motif) removed. Thus the enzyme, after removal of the affinity tag, has a N-terminus of […]; we have found this form of PHD2 to be preferred in the in vitro assays. The enzyme was expressed from the pET28a(+) vector (Novagen), with the gene cloned between NheI and BamHI restriction sites. Growth and induction were using standard techniques, in that the pET28a(+) vector was transformed into BL21(DE3) Escherichia coli cells, and grown in 2TY medium at 37° C. until the absorbance of the solution of 600 nm was 0.8. IPTG was added to a final concentration of 0.5 mM and growth was continued for three hours. Affinity purification using Novagen His-Bind resin was as per the manufacturers instructions.
The assay was carried out as for the FIH, but the buffer used was 50 mM HEPES pH7.0.

T1 sequence (Q9NWT6 whole entry): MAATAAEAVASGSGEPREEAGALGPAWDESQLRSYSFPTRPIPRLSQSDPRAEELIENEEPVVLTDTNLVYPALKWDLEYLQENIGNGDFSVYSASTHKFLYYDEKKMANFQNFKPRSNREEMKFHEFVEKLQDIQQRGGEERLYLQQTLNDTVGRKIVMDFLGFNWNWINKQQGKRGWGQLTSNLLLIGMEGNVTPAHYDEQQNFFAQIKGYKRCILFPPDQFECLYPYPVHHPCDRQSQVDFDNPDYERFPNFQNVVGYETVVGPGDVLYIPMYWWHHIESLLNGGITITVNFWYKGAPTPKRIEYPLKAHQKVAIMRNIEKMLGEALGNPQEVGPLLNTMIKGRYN
T2 sequence (Q9GZT9 with tags, fused parts or gaps): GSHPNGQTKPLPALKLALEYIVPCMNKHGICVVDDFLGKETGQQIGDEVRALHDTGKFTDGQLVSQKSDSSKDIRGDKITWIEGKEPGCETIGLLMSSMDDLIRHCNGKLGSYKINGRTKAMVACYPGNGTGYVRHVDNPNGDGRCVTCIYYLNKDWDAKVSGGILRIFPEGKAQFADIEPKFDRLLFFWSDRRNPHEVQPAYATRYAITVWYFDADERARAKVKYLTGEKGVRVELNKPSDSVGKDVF

Structure (SMILES)	effect on 2-OG consumption by FIH (FIH)	IC50 (FIH)	inhibition of PHD2 (PHD2)
O=C(O)c1c[nH]c2c(ccc3cccnc32)c1=O [FG0041]	eliminated the 2-OG consumption by FIH	–	–
O=C(O)CNC(=O)C(=O)O [N-oxalylglycine]	eliminated the 2-OG consumption by FIH	40 µM	–
O=C(O)C(=O)N[C@H](Cc1ccccc1)C(=O)O [NOFD, N-oxalyl-D-phenylalanine]	–	–	little, if any, inhibition of PHD2
